Laboratory results taken from patent US10988523B2, “Modified lipidated Relaxin B chain peptides and their therapeutic use” (Sanofi, priority 2018, dated 2021).
*1 amine or outer side, *2 acyl side, *3 side chain or, on linkers, in order; H or OH if unused. Where a SMILES comes first, the peptide text is derived from it. Side-chain parts run from the residue outwards. [ ]: non-standard residue; d: D form. The star is where a group is joined. γGlu = O=C(O)[C@H](CCC(=O)[*:2])N[*:1]; 1Nal = N[C@@H](Cc1cccc2ccccc12)C(=O)O; Stearoyl = CCCCCCCCCCCCCCCCCC(=O)*; Nle = CCCC[C@H](N)C(=O)O; AEEA = NCCOCCOCC(=O)O; Aib = CC(C)(N)C(=O)O

Molecular target: T1, RXFP1 (Homo sapiens, UniProt Q9HBX9)
T1 construct: OVCAR5 cells expressing endogenous RXFP1; endogenous in cells; host or cells: OVCAR5 cells
T1 sequence (Q9HBX9 1-757): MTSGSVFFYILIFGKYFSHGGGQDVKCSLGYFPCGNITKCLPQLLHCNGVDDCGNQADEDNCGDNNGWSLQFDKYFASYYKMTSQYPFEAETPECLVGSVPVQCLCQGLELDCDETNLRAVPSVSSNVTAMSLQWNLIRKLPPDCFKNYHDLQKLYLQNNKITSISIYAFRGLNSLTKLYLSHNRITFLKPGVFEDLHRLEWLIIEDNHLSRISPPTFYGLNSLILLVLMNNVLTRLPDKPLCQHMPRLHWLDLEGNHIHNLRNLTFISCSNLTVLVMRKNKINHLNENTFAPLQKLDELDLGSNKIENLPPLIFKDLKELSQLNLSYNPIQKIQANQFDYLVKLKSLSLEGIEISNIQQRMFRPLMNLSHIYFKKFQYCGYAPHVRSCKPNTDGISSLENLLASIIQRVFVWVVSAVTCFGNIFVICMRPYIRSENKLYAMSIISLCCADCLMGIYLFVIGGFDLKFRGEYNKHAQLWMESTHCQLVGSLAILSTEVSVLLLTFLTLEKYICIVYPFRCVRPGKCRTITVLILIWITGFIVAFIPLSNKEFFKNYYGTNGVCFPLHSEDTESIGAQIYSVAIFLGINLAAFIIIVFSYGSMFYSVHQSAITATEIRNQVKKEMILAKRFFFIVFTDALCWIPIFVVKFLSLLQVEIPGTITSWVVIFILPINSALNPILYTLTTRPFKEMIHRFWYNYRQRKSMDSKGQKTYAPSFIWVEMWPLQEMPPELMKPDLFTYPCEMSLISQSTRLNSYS
Experiment: OVCAR5 cAMP assay (HTRF), RXFP1 agonist activity
Assay type: cell-based
Details: for Emax: OVCAR-5, maximal cAMP relative to H2-relaxin maximum (100%), read-out: EMax, OVCAR 5 cells (cAMP); for EC50: OVCAR5 cells, cAMP HTRF, read-out: EC50 (nM), OVCAR 5 cells (cAMP)
In short: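 cAMP accumulation readout: after 1 mM IBMX for 40 min, endogenous-RXFP1 OVCAR5 cells got rising peptide concentrations without FCS, 30 min, 37° C, then lysis with HTRF cAMP reagents. Nonlinear regression gave EC50; Emax expressed relative to H2-relaxin maximum, same occasion.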

Row | SMILES | Emax [%] | EC50 [nM]
1 | CCCCCCCCCCCCCCCCCC(=O)N[C@@H](CCC(=O)N[C@@H](CCC(=O)N[C@@H](CCC(=O)NCCOCCOCC(=O)NCCOCCOCC(=O)NCCOCCOCC(=O)NCCCC[C@H](NC(=O)[C@H](CCCCN)NC(=O)[C@H](CCCNC(=N)N)NC(=O)C(C)(C)NC(=O)[C@H](CO)NC(=O)[C@H](Cc1cccc2ccccc12)NC(=O)[C@@H](NC(=O)[C@H](CO)NC(=O)[C@H](CCCC)NC(=O)CNC(=O)[C@H](CCC(=O)O)NC(=O)C(C)(C)NC(=O)C(C)(C)NC(=O)[C@@H](NC(=O)[C@H](CCCCNC(C)=O)NC(=O)C(C)(C)NC(=O)[C@H](CCCNC(=N)N)NC(=O)[C@@H](NC(=O)[C@H](CCCCN)NC(=O)[C@H](CCC(=O)O)NC(=O)[C@H](CCCNC(=N)N)NC(=O)CNC(=O)[C@H](CCC(=O)O)NC(=O)[C@H](CC(C)C)NC(C)=O)C(C)C)[C@@H](C)CC)[C@@H](C)O)C(N)=O)C(=O)O)C(=O)O)C(=O)O [compound 80] (Ac-LEGREKVR[Aib]K(Ac)I[Aib][Aib]EG[Nle]ST[1Nal]S[Aib]RKK([AEEA-AEEA-AEEA-γGlu-γGlu-γGlu-Stearoyl])-NH2) | 68 | 
2 | CCCCCCCCCCCCCCCCCC(=O)N[C@@H](CCC(=O)N[C@@H](CCC(=O)N[C@@H](CCC(=O)NCCOCCOCC(=O)NCCOCCOCC(=O)NCCOCCOCC(=O)NCCCC[C@H](NC(=O)[C@H](CCCCN)NC(=O)[C@H](CCCNC(=N)N)NC(=O)C(C)(C)NC(=O)[C@H](CO)NC(=O)[C@H](Cc1c[nH]c2ccccc12)NC(=O)[C@@H](NC(=O)[C@H](CO)NC(=O)[C@H](CCCC)NC(=O)CNC(=O)[C@H](CCC(=O)O)NC(=O)C(C)(C)NC(=O)C(C)(C)NC(=O)[C@@H](NC(=O)[C@H](CCCCNC(C)=O)NC(=O)[C@H](C)NC(=O)[C@H](CCCNC(=N)N)NC(=O)[C@@H](NC(=O)[C@H](CCCCN)NC(=O)[C@H](CCC(=O)O)NC(=O)[C@H](CCCNC(=N)N)NC(=O)CNC(=O)[C@H](CCC(=O)O)NC(=O)[C@H](CC(C)C)NC(C)=O)C(C)C)[C@@H](C)CC)[C@@H](C)O)C(N)=O)C(=O)O)C(=O)O)C(=O)O [compound 83] (Ac-LEGREKVRAK(Ac)I[Aib][Aib]EG[Nle]STWS[Aib]RKK([AEEA-AEEA-AEEA-γGlu-γGlu-γGlu-Stearoyl])-NH2) | 92 | 
3 | CCCCCCCCCCCCCCCCCC(=O)N[C@@H](CCC(=O)N[C@@H](CCC(=O)N[C@@H](CCC(=O)NCCOCCOCC(=O)NCCOCCOCC(=O)NCCOCCOCC(=O)NCCCC[C@H](NC(=O)[C@H](CCCCNC(C)=O)NC(=O)[C@H](CCCCN)NC(=O)[C@H](CCCNC(=N)N)NC(=O)C(C)(C)NC(=O)[C@H](CO)NC(=O)[C@H](Cc1cccc2ccccc12)NC(=O)[C@@H](NC(=O)[C@H](CO)NC(=O)[C@H](CCCC)NC(=O)CNC(=O)[C@H](CCC(=O)O)NC(=O)C(C)(C)NC(=O)C(C)(C)NC(=O)[C@@H](NC(=O)[C@H](CCCCNC(C)=O)NC(=O)[C@H](C)NC(=O)[C@H](CCCNC(=N)N)NC(=O)[C@@H](NC(=O)[C@H](CCCCN)NC(=O)[C@H](CCC(=O)O)NC(=O)[C@H](CCCNC(=N)N)NC(=O)CNC(=O)[C@H](CCC(=O)O)NC(=O)[C@H](CC(C)C)NC(C)=O)C(C)C)[C@@H](C)CC)[C@@H](C)O)C(N)=O)C(=O)O)C(=O)O)C(=O)O [compound 84] (Ac-LEGREKVRAK(Ac)I[Aib][Aib]EG[Nle]ST[1Nal]S[Aib]RKK(Ac)K([AEEA-AEEA-AEEA-γGlu-γGlu-γGlu-Stearoyl])-NH2) | 76 | 0.09
4 | CCCCCCCCCCCCCCCCCC(=O)N[C@@H](CCC(=O)N[C@@H](CCC(=O)N[C@@H](CCC(=O)NCCOCCOCC(=O)NCCOCCOCC(=O)NCCOCCOCC(=O)NCCCC[C@H](NC(=O)[C@H](CCCCNC(C)=O)NC(=O)[C@H](CCCCN)NC(=O)[C@H](CCCNC(=N)N)NC(=O)C(C)(C)NC(=O)[C@H](CO)NC(=O)[C@H](Cc1cccc2ccccc12)NC(=O)[C@@H](NC(=O)[C@H](CO)NC(=O)[C@H](CCCC)NC(=O)CNC(=O)[C@H](CCC(=O)O)NC(=O)C(C)(C)NC(=O)C(C)(C)NC(=O)[C@@H](NC(=O)[C@H](CCCCNC(C)=O)NC(=O)C(C)(C)NC(=O)[C@H](CCCNC(=N)N)NC(=O)[C@@H](NC(=O)[C@H](CCCCN)NC(=O)[C@H](CCC(=O)O)NC(=O)[C@H](CCCNC(=N)N)NC(=O)CNC(=O)[C@H](CCC(=O)O)NC(=O)[C@H](CC(C)C)NC(C)=O)C(C)C)[C@@H](C)CC)[C@@H](C)O)C(N)=O)C(=O)O)C(=O)O)C(=O)O [compound 85] (Ac-LEGREKVR[Aib]K(Ac)I[Aib][Aib]EG[Nle]ST[1Nal]S[Aib]RKK(Ac)K([AEEA-AEEA-AEEA-γGlu-γGlu-γGlu-Stearoyl])-NH2) | 75 | 
5 | CCCCCCCCCCCCCCCCCC(=O)N[C@@H](CCC(=O)N[C@@H](CCC(=O)N[C@@H](CCC(=O)NCCOCCOCC(=O)NCCOCCOCC(=O)NCCOCCOCC(=O)NCCCC[C@H](NC(=O)[C@H](CC(C)C)NC(=O)[C@H](CCCCN)NC(=O)[C@H](CCCNC(=N)N)NC(=O)C(C)(C)NC(=O)[C@H](CO)NC(=O)[C@H](Cc1c[nH]c2ccccc12)NC(=O)[C@@H](NC(=O)[C@H](CO)NC(=O)[C@H](CCCC)NC(=O)CNC(=O)[C@H](CCC(=O)O)NC(=O)C(C)(C)NC(=O)C(C)(C)NC(=O)[C@@H](NC(=O)[C@H](CCCCNC(C)=O)NC(=O)[C@H](C)NC(=O)[C@H](CCCNC(=N)N)NC(=O)[C@@H](NC(=O)[C@H](CCCCN)NC(=O)[C@H](CCC(=O)O)NC(=O)[C@H](CCCNC(=N)N)NC(=O)CNC(=O)[C@H](CCC(=O)O)NC(=O)[C@H](CC(C)C)NC(C)=O)C(C)C)[C@@H](C)CC)[C@@H](C)O)C(N)=O)C(=O)O)C(=O)O)C(=O)O [compound 86] (Ac-LEGREKVRAK(Ac)I[Aib][Aib]EG[Nle]STWS[Aib]RKLK([AEEA-AEEA-AEEA-γGlu-γGlu-γGlu-Stearoyl])-NH2) | 79 | 0.69
6 | CCCCCCCCCCCCCCCCCC(=O)N[C@@H](CCC(=O)N[C@@H](CCC(=O)N[C@@H](CCC(=O)NCCOCCOCC(=O)NCCOCCOCC(=O)NCCOCCOCC(=O)NCCCC[C@H](NC(=O)[C@H](CC(C)C)NC(=O)[C@H](CCCCN)NC(=O)[C@H](CCCNC(=N)N)NC(=O)C(C)(C)NC(=O)[C@H](CO)NC(=O)[C@H](Cc1cccc2ccccc12)NC(=O)[C@@H](NC(=O)[C@H](CO)NC(=O)[C@H](CCCC)NC(=O)CNC(=O)[C@H](CCC(=O)O)NC(=O)C(C)(C)NC(=O)C(C)(C)NC(=O)[C@@H](NC(=O)[C@H](CCCCNC(C)=O)NC(=O)[C@H](C)NC(=O)[C@H](CCCNC(=N)N)NC(=O)[C@@H](NC(=O)[C@H](CCCCN)NC(=O)[C@H](CCC(=O)O)NC(=O)[C@H](CCCNC(=N)N)NC(=O)CNC(=O)[C@H](CCC(=O)O)NC(=O)[C@H](CC(C)C)NC(C)=O)C(C)C)[C@@H](C)CC)[C@@H](C)O)C(N)=O)C(=O)O)C(=O)O)C(=O)O [compound 87] (Ac-LEGREKVRAK(Ac)I[Aib][Aib]EG[Nle]ST[1Nal]S[Aib]RKLK([AEEA-AEEA-AEEA-γGlu-γGlu-γGlu-Stearoyl])-NH2) | 71 | 
7 | CCCCCCCCCCCCCCCCCC(=O)N[C@@H](CCC(=O)N[C@@H](CCC(=O)N[C@@H](CCC(=O)N[C@@H](CCC(=O)NCCOCCOCC(=O)NCCOCCOCC(=O)NCCOCCOCC(=O)NCCCC[C@H](NC(=O)[C@H](CCCCN)NC(=O)[C@H](CCCCN)NC(=O)[C@H](CCCNC(=N)N)NC(=O)C(C)(C)NC(=O)[C@H](CO)NC(=O)[C@H](Cc1c[nH]c2ccccc12)NC(=O)[C@@H](NC(=O)[C@H](CO)NC(=O)[C@H](CCCC)NC(=O)CNC(=O)[C@H](CCC(=O)O)NC(=O)C(C)(C)NC(=O)C(C)(C)NC(=O)[C@@H](NC(=O)[C@H](CCC(N)=O)NC(=O)[C@H](C)NC(=O)[C@H](CCCNC(=N)N)NC(=O)[C@@H](NC(=O)[C@H](CCCCN)NC(=O)[C@H](CCC(=O)O)NC(=O)[C@H](CCCNC(=N)N)NC(=O)CNC(=O)[C@H](CCC(=O)O)NC(=O)[C@H](CC(C)C)NC(C)=O)C(C)C)[C@@H](C)CC)[C@@H](C)O)C(N)=O)C(=O)O)C(=O)O)C(=O)O)C(=O)O [compound 88] (Ac-LEGREKVRAQI[Aib][Aib]EG[Nle]STWS[Aib]RKKK([AEEA-AEEA-AEEA-γGlu-γGlu-γGlu-γGlu-Stearoyl])-NH2) | 74 | 0.11
